Each structure is given as a SMILES string.

Broadly, the IC50 is the concentration that inhibits the measured activity by half. The low end stands for higher potency, the high end for lower potency.

Assay [1] concerns the target Epidermal growth factor receptor (Homo sapiens, UniProt P00533). The assay can be described thus: Inhibition of autophosphorylation of EGFR cytoplasmic domain (amino acids 645 to 1186) (unknown origin) expressed in Sf9 cells after 1 hr by time-resolved fluorometry.
In a further assay the test system is A549. Nature of the assay: cells. The following applies: Homo sapiens, A549, 48 h.
The test system of a further assay is HepG2. The assay can be described thus: cells. The following applies: Homo sapiens, HepG2, 48 h.
Assay [2] concerns the target Receptor tyrosine-protein kinase erbB-2 (Homo sapiens) (UniProt P04626). The assay can be described thus: Inhibition of autophosphorylation of human HER2 cytoplasmic domain (amino acids 676 to 1245) (unknown origin) expressed in Sf9 cells after 1 hr by time-resolved fluorometry.

Sequence of Epidermal growth factor receptor (P00533 whole entry, the tested form may be a part): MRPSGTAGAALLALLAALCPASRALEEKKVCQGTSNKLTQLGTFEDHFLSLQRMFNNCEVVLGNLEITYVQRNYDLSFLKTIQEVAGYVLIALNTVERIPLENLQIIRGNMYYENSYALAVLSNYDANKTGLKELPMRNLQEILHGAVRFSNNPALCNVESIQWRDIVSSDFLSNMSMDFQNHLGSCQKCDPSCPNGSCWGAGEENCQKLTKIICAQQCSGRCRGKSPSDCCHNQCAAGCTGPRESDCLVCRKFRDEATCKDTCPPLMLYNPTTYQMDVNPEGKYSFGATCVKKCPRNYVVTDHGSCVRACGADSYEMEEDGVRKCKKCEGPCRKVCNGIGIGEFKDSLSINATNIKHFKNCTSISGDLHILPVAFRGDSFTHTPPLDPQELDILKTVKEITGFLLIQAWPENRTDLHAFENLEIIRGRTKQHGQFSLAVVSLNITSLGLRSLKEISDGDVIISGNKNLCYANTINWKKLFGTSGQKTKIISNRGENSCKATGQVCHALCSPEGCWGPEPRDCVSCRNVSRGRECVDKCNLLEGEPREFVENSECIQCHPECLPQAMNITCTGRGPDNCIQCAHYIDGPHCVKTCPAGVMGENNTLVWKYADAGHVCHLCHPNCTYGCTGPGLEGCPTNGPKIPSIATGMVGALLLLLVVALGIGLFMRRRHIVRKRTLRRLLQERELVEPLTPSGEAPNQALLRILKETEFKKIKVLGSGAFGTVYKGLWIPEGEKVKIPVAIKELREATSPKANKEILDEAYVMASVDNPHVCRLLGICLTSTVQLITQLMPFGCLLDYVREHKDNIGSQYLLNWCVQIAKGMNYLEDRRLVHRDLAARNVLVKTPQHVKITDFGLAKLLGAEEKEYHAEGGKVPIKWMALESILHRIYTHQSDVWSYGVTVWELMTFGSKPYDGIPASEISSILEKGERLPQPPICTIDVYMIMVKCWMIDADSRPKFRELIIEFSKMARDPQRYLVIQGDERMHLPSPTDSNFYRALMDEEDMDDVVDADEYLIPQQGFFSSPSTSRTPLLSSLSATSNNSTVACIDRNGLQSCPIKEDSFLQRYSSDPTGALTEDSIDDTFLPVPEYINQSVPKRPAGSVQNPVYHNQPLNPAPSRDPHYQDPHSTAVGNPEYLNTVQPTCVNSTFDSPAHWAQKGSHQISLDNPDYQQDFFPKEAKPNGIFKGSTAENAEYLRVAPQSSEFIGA
Sequence of Receptor tyrosine-protein kinase erbB-2 (Homo sapiens) (P04626 whole entry, looked up, the tested form may be a part): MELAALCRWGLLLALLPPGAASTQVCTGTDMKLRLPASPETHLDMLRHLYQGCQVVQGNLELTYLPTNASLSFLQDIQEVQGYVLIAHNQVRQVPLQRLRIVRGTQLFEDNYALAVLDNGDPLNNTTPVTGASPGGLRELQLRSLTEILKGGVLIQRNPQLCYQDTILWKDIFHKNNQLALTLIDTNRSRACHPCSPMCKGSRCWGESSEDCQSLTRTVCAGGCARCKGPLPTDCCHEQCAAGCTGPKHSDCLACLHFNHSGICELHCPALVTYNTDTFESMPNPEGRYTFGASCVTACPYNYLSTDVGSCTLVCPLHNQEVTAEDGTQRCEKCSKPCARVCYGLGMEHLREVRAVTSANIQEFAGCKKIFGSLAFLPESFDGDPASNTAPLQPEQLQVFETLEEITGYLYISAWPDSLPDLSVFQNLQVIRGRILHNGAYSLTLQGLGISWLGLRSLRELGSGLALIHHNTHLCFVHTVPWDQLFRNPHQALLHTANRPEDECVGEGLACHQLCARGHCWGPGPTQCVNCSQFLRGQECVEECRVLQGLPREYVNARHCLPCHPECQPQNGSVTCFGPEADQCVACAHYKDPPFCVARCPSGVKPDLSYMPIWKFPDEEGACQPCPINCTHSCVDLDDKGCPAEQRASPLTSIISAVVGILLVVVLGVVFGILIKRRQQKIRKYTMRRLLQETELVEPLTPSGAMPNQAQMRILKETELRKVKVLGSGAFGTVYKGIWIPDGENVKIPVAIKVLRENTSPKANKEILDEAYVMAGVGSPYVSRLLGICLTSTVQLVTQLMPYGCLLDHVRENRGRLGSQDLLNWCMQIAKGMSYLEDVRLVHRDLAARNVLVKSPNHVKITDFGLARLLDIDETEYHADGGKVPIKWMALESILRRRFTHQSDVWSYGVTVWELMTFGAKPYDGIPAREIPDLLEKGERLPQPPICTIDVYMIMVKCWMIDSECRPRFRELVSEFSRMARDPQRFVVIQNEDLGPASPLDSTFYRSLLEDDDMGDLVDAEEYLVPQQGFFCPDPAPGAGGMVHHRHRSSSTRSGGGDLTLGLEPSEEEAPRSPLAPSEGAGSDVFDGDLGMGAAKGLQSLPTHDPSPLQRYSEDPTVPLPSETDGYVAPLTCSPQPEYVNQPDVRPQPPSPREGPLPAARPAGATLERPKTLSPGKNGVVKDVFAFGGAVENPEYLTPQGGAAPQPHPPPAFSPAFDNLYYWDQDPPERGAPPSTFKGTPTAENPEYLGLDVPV

As for `COc1ccc(Oc2nc3ccc(C)cc3cc2/C=N/NC(=O)Cn2c([N+](=O)[O-])cnc2C)cc1`, the IC50 worked out at 0.12 µM in assay [1], 0.16 µM with A549, 3.15 µM in the assay on HepG2 and 2.18 µM in assay [2].
On the same counts, the results for `Cc1ccc2nc(Oc3ccc(F)cc3)c(/C=N/NC(=O)Cn3c([N+](=O)[O-])cnc3C)cc2c1` are 0.42 µM, 0.19 µM, 1.56 µM and 0.43 µM.
Turning to `Cc1ccc2nc(Oc3ccc(Cl)cc3)c(/C=N/NC(=O)Cn3c([N+](=O)[O-])cnc3C)cc2c1`, the IC50 in assay [1] worked out at 8.66 µM; with A549 it was 1.23 µM; with HepG2 it was 3.18 µM; in assay [2], 19 µM.
On the same counts, the results for `Cc1ncc([N+](=O)[O-])n1CC(=O)N/N=C/c1cc2ccccc2nc1Oc1ccc(F)cc1` are 21 µM, 3.12 µM, 0.18 µM and 0.37 µM.
As for `Cc1ncc([N+](=O)[O-])n1CC(=O)N/N=C/c1cc2ccccc2nc1Oc1ccccc1`, the IC50 came to 9.45 µM in the assay on A549 and 13.3 µM in the assay with HepG2.
`Cc1ccc2nc(Oc3ccccc3)c(/C=N/NC(=O)Cn3c([N+](=O)[O-])cnc3C)cc2c1`: the IC50 in assay [1] worked out at 3.17 µM; in the assay on A549, 7.18 µM; with HepG2, 15.1 µM; in assay [2], 1.58 µM.
Regarding `Cc1ccc(Oc2nc3ccccc3cc2/C=N/NC(=O)Cn2c([N+](=O)[O-])cnc2C)cc1`, the IC50 in assay [1] was determined as 23.1 µM; in the assay with A549, 21.5 µM; with HepG2, 27.1 µM; in assay [2], 7.67 µM.
For `COc1ccc(Oc2nc3ccccc3cc2/C=N/NC(=O)Cn2c([N+](=O)[O-])cnc2C)cc1`, in that order: 0.27 µM, 0.92 µM, 4.13 µM and 12 µM.
On the same counts, the results for `Cc1ncc([N+](=O)[O-])n1CC(=O)N/N=C/c1cc2ccccc2nc1Oc1ccc(Cl)cc1` are 5.12 µM, 9.03 µM, 0.22 µM and 4.1 µM.
In the case of `Cc1ccc(Oc2nc3ccc(C)cc3cc2/C=N/NC(=O)Cn2c([N+](=O)[O-])cnc2C)cc1`, the IC50 was found to be 0.18 µM in assay [1], 1.19 µM with A549, 21.9 µM in the assay on HepG2 and 17 µM in assay [2].

Source of the values: ChEMBL document CHEMBL3232917, “Schiff's base derivatives bearing nitroimidazole and quinoline nuclei: new class of anticancer agents and potential EGFR tyrosine kinase inhibitors” (Bioorg Med Chem Lett, 2014).
